Measured values from patent publication US12173349B2, “Lung protease nanosensors and uses thereof” (Massachusetts Institute of Technology, priority 2018, dated 2024).
“Also recorded” adds a separate entry of the source. *1 amine or outer side, *2 acyl side, *3 side chain or, on linkers, in order; H or OH if unused. Where no end group is shown, it is not given here. [ ]: non-standard residue; d: D form. ξ: configuration not given here. +10F = isotope-labelled Phe, +10, O=[13C]([13C@H]([13CH2][13c]1[13cH][13cH][13cH][13cH][13cH]1)[15NH][*:1])[*:2]; ξβ3hPhg(2-NO2) = O=C(CC(N[*:1])c1ccccc1[N+](=O)[O-])[*:2]; FAM = carboxyfluorescein fluorophore label; AF488 = Alexa Fluor 488 fluorophore label; +1A = isotope-labelled Ala, +1; +1F = isotope-labelled Phe, +1; +2G = isotope-labelled Gly, +2; +4A = isotope-labelled Ala, +4; F+10 = not defined here; A+4 = not defined here; G+2 = not defined here; G+3 = not defined here

What was measured:
[1] = test system: 15 proteases in the LUAD protease panel; experiment: in vitro recombinant protease screen of FRET-paired substrates; assay type: biochemical; conditions: fluorescence fold change at 45 minutes; 1 μM substrate, 12.5 nM recombinant enzyme; MP metallo-, SP serine, AP aspartic protease
Source text: Hundreds of peptide sequences have been previously designed and validated as protease substrates, leveraging known catalytic specificities of different protease families, published datasets and substrate sequences in databases like cutDB and MEROPS (Igarashi et al., Nucleic Acids Res 35, D546-549, 2007; Rawlings et al., Nucleic Acids Res 46, D624-D632, 2018). Fourteen of these substrates were nominated in an effort to cover the specificity profiles of metallo-, serine and aspartic endoproteases, all of which were included in the LUAD protease panel, and the catalytic activity of each protease-substrate pair was characterized. Quenched probes that incorporated the 14 peptide substrates were synthesized such that they fluoresce upon proteolytic cleavage to enable real-time monitoring of protease activity in vitro (FIG. 3A and Table 2). Each probe was incubated with each protease in the panel and fluorescence was monitored over 45 minutes. Shown are sample kinetic plots monitoring dequenching of the 14 FRET-paired probes when incubated with (above) and without (below) recombinant matrix metalloproteinase 3 (MMP3) (FIG. 3B). […] See also FIG. 19.
Fluorogenic protease substrates were synthesized by CPC Scientific. Recombinant proteases were purchased from Enzo Life Sciences, R&D Systems and Haematologic Technologies. For recombinant protease assays, fluorogenic substrates PPQ1-14 (1 μM final concentration) were incubated in 30 μL final volume in appropriate enzyme buffer, according to manufacturer specifications, with 12.5 nM recombinant enzyme at 37° C. (FIG. 3). Proteolytic cleavage of substrates was quantified by increases in fluorescence over time by fluorimeter (Tecan Infinite M200 Pro). Enzyme cleavage rates were quantified as relative fluorescence increase over time normalized to fluorescence before addition of protease. Hierarchical clustering was performed in GENE-E, using fluorescence fold changes at 45 minutes.

[2] = test system: Kras and p53 mutant lung adenocarcinoma (KP mice); experiment: urinary ABN readout and random forest classification in KP lung adenocarcinoma model; assay type: in vivo; conditions: KP10.5 wk urine
Method: To characterize ABN performance in vivo, 14 protease-sensitive ABNs were administered to KP mice and healthy, age and sex-matched controls at 5, 7.5 and 10.5 weeks after tumor initiation. Mouse bladders were voided one hour after intrapulmonary delivery and all fresh urine produced during the subsequent hour (from 60-120 minutes after administration) was pooled and collected. LC-MS/MS was performed and peak area ratios (defined as peak area of urinary reporter divided by peak area of spiked-in internal standard) of protease-sensitive reporters were mean-normalized within each sample to reduce mouse-to-mouse variation.
A random forest classifier was then sought to be built to enable prospective diagnosis of lung cancer in KP mice. Random forest is a high-performance classifier, applicable to a wide variety of classification tasks, that generates a collection of decision trees (a “forest”) that are sampled to produce classification results (Breiman, Machine Learning 45, 5-32, 2001). A random forest classifier was trained using 50% of control mice at 5 weeks, 7.5 weeks and 10.5 weeks, as well as 50% of KP mice at 7.5 weeks (FIG. 6A). The classifier assigned a probability that each mouse belonged to either the KP cohort or the healthy control cohort (FIG. 6B, “Training” panel), achieving perfect separation of control and KP mice. The classifier was then sought to be tested on an independent validation cohort consisting of classifier-naive KP mice at 5 weeks, 7.5 weeks and 10.5 weeks post-induction, as well as the remaining control mice from each time point.
Male B6/SV129 Kras^LSL-G12D/+; Trp53^fl/fl (KP) mice between 18 and 30 weeks old were used for lung adenocarcinoma experiments. Tumors were initiated, as described previously (DuPage et al., Nat Protoc 4, 1064-1072 (2009)), by the intratracheal administration of 50 μL of adenovirus-SPC-Cre (2.5×10^8 PFU in Opti-MEM with 10 mM CaCl2)) under isoflurane anesthesia. […] Tumor growth was monitored by micro computed tomography (microCT) imaging (General Electric) and was scored by a blinded radiation oncologist using MicroView (Parallax Innovations) (Table 4). Tumor volumes were calculated by using the ROI sphere/elliptical tool.
ABN constructs (GluFib-Substrate-PEG-840 kDa) for urinary experiments were synthesized by CPC Scientific (Sunnyvale, CA). ABNs were dosed (50 μL total volume, 20 μM concentration per ABN) by intratracheal intubation, as described above. Bladders were voided 60 minutes after ABN administration and all urine produced 60-120 min after ABN administration was collected using custom tubes in which the animals rest upon 96-well plates that capture urine. Urine was pooled and frozen at −80° C. until analysis by LC-MS/MS.
Liquid chromatography/tandem mass spectrometry was performed by Syneos Health (Princeton, NJ) using a Sciex 6500 triple quadrupole instrument. Briefly, urine samples were treated with UV irradiation to photocleave the ANP linker and liberate the Glu-Fib reporter from residual peptide fragments. Samples were extracted by solid-phase extraction and analyzed by multiple reaction monitoring by LC-MS/MS to quantify concentration of each Glu-Fib mass variant. Analyte quantities were normalized to a spiked-in internal standard and concentrations were calculated from a standard curve using peak area ratio (PAR) to the internal standard. Mean normalization was performed on PAR values to account for mouse-to-mouse differences in ABN inhalation efficiency and urine concentration.
Principal component analysis (PCA) was performed on mean normalized PAR values in the R statistical environment (Team, R.C. R, R Foundation for Statistical Computing, Vienna, Austria, 2017) using the prcomp function. Binary classification was performed using the Caret package (Kuhn, M. caret: Classification and Regression Training. (2017)) in the R statistical environment). […]

[3] = test system: P. aeruginosa strain PA01 lung infection; experiment: urinary reporter ELISA after intravenous ABNs in bacterial pneumonia model; assay type: in vivo, mice; conditions: for urine signal in ciprofloxacin-treated versus doxycycline-treated mice / urine signal relative to healthy controls: 24 hours post-infection; for urine signal after ciprofloxacin treatment above baseline: 7 days post-infection, 4 days of ciprofloxacin; for increase in urinary reporter after initiation of infection relative to pre-infection: ABNs injected intravenously 24 hours post infection, urine at 1 hour; for ROC AUC, infected from healthy mice: FIG. 11D, n=9 mice; for ROC AUC, ciprofloxacin treated from pre-treatment signal (Treatment): FIG. 12, 7 days post-infection; for ROC AUC, infected from healthy (Infection): FIG. 12, administered prior to drug treatment; for ROC AUC, effective versus ineffective treatment (doxycycline-treated vs ciprofloxacin-treated): treatment started 5 hours post-infection, ABNs 24 hours post-infection
Source text: Peptide substrates were coupled to 40 kDa 8-arm PEG-MAL via terminal cysteines on each peptide to generate ABNs for use in vivo (Dudani et al., Adv Funct Mater, 26, 2919, 2016; Kwong et al., Proc Natl Acad Sci, 112, 12627, 2015). Each substrate is barcoded with an independent ligand and a biotin on a stable urinary peptide reporter that can be measured by a sandwich ELISA after proteolysis of the substrate, release of the reporter, and clearance into the urine (Warren et al., Proc Natl Acad Sci USA, 111, 3671, 2014; Lin et al., ACS Nano, 0) (FIGS. 11A and 16). The selection of a pair of distinct, ligand-encoded reporters enables simultaneous, multiplexed administration of the two nanosensors. Following initiation of the infection, ABNs were injected intravenously after 24 hours and collected urine an hour after the administration of the nanosensors.
To evaluate whether the presently disclosed ABNs could be used to monitor clearance of infection, PA01 was instilled intratracheally into mice, the pair of ABNs was administered the following day to confirm and set a baseline for infection in each individual, and then antibiotic treatment was initiated with ciprofloxacin, a commonly used broad spectrum antibiotic with activity against gram-negative bacteria, including PA01 (Zeiler et al., Ciprofloxacin, 14, 1986). The diagnostic ABN injection and urine collection was repeated 7 days post-infection (with an interceding 4 days of drug treatment) to determine whether the substrates could monitor recovery from infection following effective antibiotic treatment (FIG. 12A). After ciprofloxacin treatment, LAS urine signal returned to baseline, though ELA remained elevated (1.2-fold and 2.2-fold above baseline, respectively; […]).
Individual responses to antimicrobial treatment can be highly variable, dependent upon the strain of pathogen and the presence of antibiotic resistance, and current clinical tests take 24-72 hours to identify antibiotic susceptibility (Caliendo et al., Clin Infect Dis, 57, S139, 2013). In addition, current clinical tests used to visualize lung infections (e.g., chest X-ray and computed tomography) are often unable to distinguish active infections from those that have been adequately treated until several weeks after antibiotic therapy is complete, because the airspace opacifications characteristic of pneumonia remain apparent on routine radiography screens (Bruns et al., J Gen Intern Med, 25, 203, 2010). Therefore, the ability of the infection-tracking ABNs to identify successful versus insufficient treatment on an acute time-scale shortly after therapeutic initiation was sought to be evaluated. Only 5 hours after establishing lung infections with PA01, antibiotic treatment was initiated with either ciprofloxacin (efficacious against P. aeruginosa) or doxycycline (ineffective against gram-negative bacteria including P. aeruginosa) (FIG. 13A). The following day, multiplexed LAS-E and ELA-E ABNs were administered and urine was collected. […] The persistent Pseudomonas immunostaining observed following ciprofloxacin treatment might be derived from residual Pseudomonas antigens remaining from lysed bacteria that had not yet been cleared by the immune system. Alternatively, the reduced LAS sensor reading in these treated mice could reflect a suppression of LasA secretion from bacteria as they are killed by the potent antibiotic.
All animal studies were approved by Massachusetts Institute of Technology's Committee on Animal Care. For infection studies, 5-7 week old female CD-1 mice were innoculated intratracheally with 1.25×10^6 CFU of P. aeruginosa strain PA01 in 50 μL of PBS. Bacteria were cultured overnight in LB broth, then subcultured and grown to log phase (OD600≈0.5). Bacteria were pelleted, washed with sterile PBS, and then resuspended to the requisite concentration for intratracheal administration. Mice were administered buprenorphine and meloxicam several hours after infection. […]

Substance: PP11: ABN: reporter e(+3G)(+1V)ndnee(+2G)(+10F)Fs(+4A)r, ANP, substrate SGSKIIGGG, nanocarrier PEG8-40 kDa (chain 1 [dE][G+3][V+1][dN][dD][dN][dE][dE][G+2][F+10]F[dS][A+4][dR]; reading uncertain; also: ANP photolabile linker, attachment not given here, PEG8-40 kDa nanocarrier, attachment not given here, how reporter and substrate are joined not given here, printed as PP11: ABN: reporter e(+3G)(+1V)ndnee(+2G)(+10F)Fs(+4A)r, ANP, substrate SGSKIIGGG, nanocarrier PEG8-40 kDa)
- protease class(es) cleaving the substrate in vitro [1]: serine protease-sensitive; also recorded: only by serine proteases
- urinary reporter enrichment relative to healthy controls [2]: most significantly enriched

Substance: ELA-E: elastase substrate with FAM ligand-encoded reporter and biotin (SEQ ID NO: 48), coupled to 40 kDa 8-arm PEG-MAL ([dE]G[dV][dN][dD][dN][dE][dE]G[dF][dF][dS][dA][dR]K(FAM)GGAAFAGC; also: biotin, site not given here, coupled to 40 kDa 8-arm PEG-MAL, site not given here)
- urine signal in ciprofloxacin-treated versus doxycycline-treated mice [3]: not significantly different
- urine signal after ciprofloxacin treatment above baseline [3]: 2.2 fold
- increase in urinary reporter after initiation of infection relative to pre-infection [3]: 2.6 fold
- ROC AUC, infected from healthy mice [3]: 1.00
- ROC AUC, ciprofloxacin treated from pre-treatment signal (Treatment) [3]: 0.72
- ROC AUC, infected from healthy (Infection) [3]: 1.00
- urine signal relative to healthy controls ([3]; ciprofloxacin-treated mice): robustly elevated
- urine signal relative to healthy controls ([3]; doxycycline-treated mice): robustly elevated
- ROC AUC, effective versus ineffective treatment (doxycycline-treated vs ciprofloxacin-treated) [3]: 0.536

Substance: PP04: ABN: reporter e(+2G)Vndnee(+2G)FFs(+4A)r, ANP, substrate PLGLRSW, nanocarrier PEG8-40 kDa (chain 1 [dE][+2G]V[dN][dD][dN][dE][dE][+2G]FF[dS][+4A][dR][ξβ3hPhg(2-NO2)]; also: ANP photolabile linker joins reporter and substrate, sites not given here, PEG8-40 kDa nanocarrier, site not given here)
- protease class(es) cleaving the substrate in vitro [1]: SP/MP

Substance: PP10: ABN: reporter e(+2G)(+6V)ndneeG(+10F)(+1F)s(+1A)r, ANP, substrate ILSRIVGGG, nanocarrier PEG8-40 kDa (chain 1 [dE][+2G][+6V][dN][dD][dN][dE][dE]G[+10F][+1F][dS][+1A][dR][ξβ3hPhg(2-NO2)]; also: ANP photolabile linker joins reporter and substrate, sites not given here, PEG8-40 kDa nanocarrier, site not given here)
- protease class(es) cleaving the substrate in vitro [1]: MP/SP/AP

Substance: LAS-E: LasA substrate with AF488 ligand-encoded reporter and biotin (SEQ ID NO: 46), coupled to 40 kDa 8-arm PEG-MAL ([dE]G[dV][dN][dD][dN][dE][dE]G[dF][dF][dS][dA][dR]K(AF488)GGLGGGAGC; also: biotin, site not given here, coupled to 40 kDa 8-arm PEG-MAL, site not given here)
- urine signal in ciprofloxacin-treated versus doxycycline-treated mice [3]: significantly lower
- urine signal after ciprofloxacin treatment above baseline [3]: 1.2 fold
- increase in urinary reporter after initiation of infection relative to pre-infection [3]: 1.8 fold
- ROC AUC, infected from healthy mice [3]: 0.86
- ROC AUC, ciprofloxacin treated from pre-treatment signal (Treatment) [3]: 0.88
- ROC AUC, infected from healthy (Infection) [3]: 0.92
- urine signal relative to healthy controls ([3]; doxycycline-treated mice): elevated
- ROC AUC, effective versus ineffective treatment (doxycycline-treated vs ciprofloxacin-treated) [3]: 0.893
